According to patent US20080207711A1, “Method for treating an ID2-related disorder” (priority 2007, published 2008):

Test system: Pkd2−/− mice
Assay: Treatment of pregnant female mice from a Pkd2+/- cross; newborn pups examined for kidney cysts, kidney size, edema and body size
Type: in vivo
Method: FIG. 1. […] (a) wild-type and (b) Pkd2^−/− kidneys without rosiglitazone treatment. (c) Pkd2^+/− and (d) Pkd2^−/− kidneys with rosiglitazone treatment.
Rosiglitazone, which may inhibit Id2 activity, alleviates the effects of Pkd loss of function mutations. This was shown by treating pregnant female mice from a cross between Pkd2^+/− mice with 80 mg/kg diet/day ciglitazone or rosiglitazone for ten days prior to delivery. […] Similarly, Id2 knockout mice were small. […] In contrast, ciglitazone treatment appeared to have no effect on newborn Pkd2^−/− mice.

[1] = mother treated 80 mg/kg diet/day for ten days prior to delivery

CC1(COc2ccc(CC3SC(=O)NC3=O)cc2)CCCCC1 (centres unmarked) [ciglitazone, 5-[4-[(1 methylcyclohexyl)methoxy]benzyl]thiazolidine-2,4-dione]
effect on newborn Pkd2−/− mice [1]: no effect

CN(CCOc1ccc(CC2SC(=O)NC2=O)cc1)c1ccccn1 (centres unmarked) [rosiglitazone, 5-[4-[2-(N-methyl-N-(2-pyridyl)amino)ethoxy]benzyl]thiazolidine-2,4-dione]
cyst formation in Pkd2−/− kidneys (FIG. 1, kidneys with vs without treatment): inhibits cyst formation
body size of newborn pups [1]: small body size in six of newborn pups
edema in Pkd2−/− pup [1]: no edema
kidney size and morphology of Pkd2−/− pup (mother treated 80 mg/kg diet/day for ten days prior to delivery, compared to Pkd2−/− littermates of untreated mothers): kidneys of normal size and morphology
